Reference: patent US7371524B2, “Substituted azaporphyrins as fluorescence labels” (priority 2003, dated 2008)

Key:
Assay type in all cases: physicochemical
[1] = Fluorescence intensity and polarization of free dye in buffers and glycerol (solvent sensitivity); settings: for solvent sensitivity of fluorescence intensity: buffer, buffer plus serum, glycerol; for Fluorescence Intensity (I), BBS / Polarization (mp), BBS: borate buffered saline pH 8.0; for Fluorescence Intensity (I), TDx Buffer: intensities comparable only horizontally
Excerpt: The performance of a fluorophore (fluorescent moiety) can be partly assessed by measurements on the free dye i.e., not in a complete fluorescent probe. Meaningful parameters in this kind of test include fluorescence intensity and polarization/anisotropy which usually are altered when the fluorophore is exposed to different ionic strengths, specific ions or biomolecules such as are present in blood serum. These effects may be thought of as “solvent effects” and may be produced either by changes in the interactions between molecules of the fluorophore to change the state of aggregation or between fluorophore molecules and the components of the solvent (nonspecific binding, NSB).
In Table 1 the performance of any one dye can be judged by the changes in fluorescence intensity (I), and/or the changes in polarization (mp, milli-polarization units) as one proceeds horizontally across the table. The “perfect” fluorescence label would have the same values for each of these parameters regardless of the solvent composition.
Abbreviations: mp: […]; TDx Buffer: Commercial buffer used in fluorescence polarization assays; Pc: phthalocyanine; BBS: Borate buffered saline (0.25 M NaCl, 0.0232 M boric acid and 0.00179 M sodium tetraborate. The pH is finally adjusted to 8.0+/−0.05 with 1M NaOH). When serum was tested, 25 μl of whole serum was added to 1 ml of BBS (containing 25 μl of the dye already added). Note that the relative concentrations of the various fluorophores is not known so that comparisons of fluorescence intensities are meaningful only when proceeding in a horizontal direction. An alternative to BBS for manipulating LJB-3 in aqueous solutions is borate buffered KCl (BBKCl) which is made by mixing 33.1 ml of 0.70 M boric acid, 4.0 ml of 0.50 M K2B4O7, 75 ml of 4.0 M KCl and water to make 1 liter: pH ca. 8.1.
Fluorescence measurements: These were made in a transient state polarization fluorometer (FAST-1, Hyperion, Inc. Miami, Fla.)

[2] = Near infrared absorbance of dye
[3] = Passage through membranes and gel permeation chromatography (micelle formation); settings: PEG dye at 10^−4 M and above
Excerpt: In addition, an advantage emerges in that micelle formation by the PEG is absent. […] Also, the dye moves in the void volume in gel permeation chromatography designed to separate macromolecules from small molecules.

Substance	solvent sensitivity of fluorescence intensity [1]	Fluorescence Intensity (I), BBS [1]	Polarization (mp), BBS [1] [mp]	Fluorescence Intensity (I), Glycerol [1]	Polarization (mp), Glycerol [1] [mp]	Polarization (mp), TDx Buffer [1]	Fluorescence Intensity (I), TDx Buffer [1]	sensitivity to ionic strength [1]	near infrared absorbance maximum [2] [nm]	behaviour on membranes (30K daltons) and in gel permeation chromatography [3]
Bis-hydroxy (2,3Dicarboxyphthalocyanino) Silicon IV	less sensitive to serum and solvent than is the Al compound	–	–	–	–	–	–	–	–	–
DiphosphatoSidicarboxyphthalocyanine	–	1078	2.4	454	105	6.7 mp	1069	–	–	–
Hydroxyaluminumphthalocyaninetrisulfonate [Al Pc trisulfonate, reference compound]	very solvent-sensitive	520	3.4	3155	236	1.7 mp	1108	strong sensitivity to ionic strength	–	–
dihydroxy dicarboxy silicon phthalocyanine sulfonate [LJB-3]	almost the same fluorescence output in buffer, buffer plus serum or glycerol alone	741	2.0	1351	199	−.03 mp	1230	–	679	behaves as expected for a molecule of its formula weight
